Measurements taken from patent US9637471B2, “Hydroxyindalpine derivatives and their medical use” (Technische Universitat Munchen, priority 2013, dated 2017).

How the values were obtained:
5-HT1P receptor = experiment: Neuronal tissue assay: voltage-sensitive dye neuroimaging of human submucous plexus preparations; type: cell-based
Method: The effect of 5-BOIP was tested on freshly dissected submucous plexus preparations from surgical resections of human intestine. Samples were taken from macroscopically unaffected areas. Procedures were approved by the ethics committees of the Technical University Munich (1748/07 and 2595/09). Segments were dissected in ice cold Krebs solution to obtain mucosa/submucosa preparations containing the inner submucous plexus preparations for the imaging experiments.
In order to image the activity of enteric neurons using voltage sensitive dyes, the human submucous plexus preparations were placed into a recording chamber which was continuously perfused at 37° C. with oxygenated Krebs solution containing 117 mM NaCl, 4.7 mM KCl, 1.2 mM MgCl2, 1.2 mM NaH2PO4, 20 mM NaHCO3, 2.5 mM CaCl2, 11 mM glucose (pH 7.4). The neuroimaging set-up allowed to monitor membrane potential changes and changes in intracellular Ca^2+ [Ca]i transients in all cells of a given ganglion. To study membrane potential changes, individual ganglia were stained with the voltage-sensitive dye Di-8-ANEPPS (20 μM; Molecular Probes, Eugene, Oreg., USA) via intraganglionic application through a microejection pipette.
The imaging experiments were conducted on an inverted microscope (Zeiss Axio Observer.A1; Munich, Germany) equipped with the NeuroCCD system, consisting of a fast CCD camera (80×80 pixels) and the Neuroplex software for data acquisition and analysis (RedShirtImaging, Decatur, Ga., USA). To detect Di-8-ANEPPS a modified Cy3 filterset (545±15 nm excitation, 565 nm dichroic mirror, 580 nm barrier; Ahf Analysentechnik, Tübingen, Germany) was used. A green LED (LE T S2W, Osram, Munich, Germany) was used to excite Di-8-ANEPPS. Visualization of the ganglia and recording of signals were done with a ×100 or ×40 objective (NA=1.35, Olympus, Hamburg, Germany). The imaging set-up allowed to measure relative changes in the fluorescence (ΔF/F), which is for Di-8-ANEPPS linearly related to changes in the membrane potential. Frame rate to detect action potentials was 1 kHz. The overlay of signals and ganglion images allowed the analysis of the responses of individual cells.
5-BOIP was prepared at a stock solution of 100 mM. For controlled local application fine glass capillaries were filled with 50 μM 5-BOIP and positioned just above a ganglion. 5-BOIP was microejected for 400 ms via pressure pulse onto the ganglion. […] Since G protein coupled receptor activation takes several seconds, the recordings were started after a period of 2 s. In preliminary experiments it was verified that there was no immediate effect of 5-BOIP that would begin with the ejection application or directly thereafter.
The specificity of 5-BOIP effects was tested against the 5-HT1 antagonist 5-hydroxytryptophan dipeptide (5-HTP-DP). […]

[1] = system: circular muscle strips from the guinea pig stomach; experiment: Nerve mediated muscle responses to electrical field stimulation (EFS) in circular muscle strips, organ bath; type: cell-based; conditions: 10 μM in organ bath, EFS after 20 min
Method: The effects of 5-BOIP and homo-5-BOIP were tested in tissue preparations from the guinea pig stomach. After sacrificing the guinea pigs, the stomach was removed and immediately placed in ice-cold oxygenated Krebs solution. The stomach was opened along the greater curvature, thoroughly washed and pinned mucosal side up in Sylgard-coated Petri dishes. The mucosa was then carefully removed. Muscle strips (1.5 cm^2) were cut parallel to the circular muscle and mounted in 25 ml organ baths where they were maintained in oxygenated Krebs solution at 37° C. One edge of each muscle strip was attached to an isometric tension transducer (PowerLab, AD Instruments, Spechbach, Germany).
After mounting in the organ baths, tissues were equilibrated with a preload set at 15 mN for 45 min. Then, electrical field stimulations (EFS) were performed (constant current, 100 mA, pulse frequency 10 Hz, pulse width of 0.5 ms, 10 s). With the chosen parameters for the EFS, only the neuronal tissue in the preparation was stimulated without having a direct effect on the smooth muscle. […]
After reaching stable responses to the EFS, 5-BOIP and homo-5-BOIP were added to the organ baths at a final concentration of 10 μM. […] The responses to the EFS under control conditions and in the presence of 5-BOIP or homo-5-BOIP were analyzed later.

[2] = Retention of activity after storage (chemical stability); type: physicochemical; conditions: storage for 15 months as a solid at 4° C. or in solution frozen at −20° C.
mouse isolated colon = conditions: cited from earlier work

Row | Structure (SMILES) | action potential (spike) frequency (5-HT1P receptor; 5-BOIP alone, 50 μM in capillary microejected 400 ms onto ganglion, median (10%/90%)) | effect on human enteric nerve cells when applied to the ganglia (5-HT1P receptor; 5-BOIP applied to ganglia, human submucous plexus) | action potential (spike) frequency in presence of 5-HT1P receptor antagonist 5-HTP-DP (5-HT1P receptor; 5-BOIP during 20 min bath application of 10 μM 5-HTP-DP, median (10%/90%)) | action potential (spike) frequency after washing out the antagonist 5-HTP-DP (5-HT1P receptor; 5-BOIP freshly added after washout of 5-HTP-DP, median (10%/90%)) | effect on the "on contraction" in response to the EFS [1] | activity after storage [2] | effect on threshold pressure required to trigger the peristaltic reflex (mouse isolated colon) | effect on peristalsis (mouse isolated colon; concentration dependent)
1 | c1ccc(COc2ccc3[nH]cc(CCC4CCNCC4)c3c2)cc1 [5-BOIP, 5-(benzyloxy)-3-(2-(piperidin-4-yl)ethyl)-1H-indole] | 1.6 (1.0/2.1) Hz | induces action potentials | 0 (0/0.5) Hz | 1.0 (0.5/1.6) Hz | clearly reduced | retains activity |  | 
2 | Oc1ccc2[nH]cc(CCC3CCNCC3)c2c1 [5-OHIP, 5-hydroxyindalpine] |  |  |  |  |  | would lose its activity | reduce the threshold pressure | accelerate peristalsis
3 | c1ccc(COc2ccc3[nH]cc(CCCC4CCNCC4)c3c2)cc1 [homo-5-BOIP, 5-(benzyloxy)-3-(3-[piperidin-4-yl]propyl)-1H-indole] |  |  |  |  | clearly reduced |  |  | 
